According to PubChem BioAssay (NCI):
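In this assay, cells in 96-well plates receive the compound at five concentrations for 48 hours. Endpoints are linearly interpolated between the surrounding concentrations. Abbreviation: GI50, concentration required for 50% inhibition of growth. TGI is the concentration that stops growth completely.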

Tests used:
Test in all cases: NCI anticancer screen, dose series, 48 h
[1] = test system: LOX IMVI melanoma
[2] = test system: SK-MEL-28 melanoma
[3] = test system: SN12C renal
[4] = test system: T-47D breast
[5] = test system: HL-60(TB) leukemia
[6] = test system: SF-268 CNS
[7] = test system: HOP-62 NSCLC
[8] = test system: HCT-116 colon
[9] = test system: CAKI-1 renal
[10] = test system: 786-0 renal
[11] = test system: A549 NSCLC
[12] = test system: SF-539 CNS
[13] = test system: RPMI-8226 leukemia
[14] = test system: OVCAR-4 ovarian
[15] = test system: HS 578T breast
[16] = test system: K-562 leukemia
[17] = test system: OVCAR-5 ovarian
[18] = test system: TK-10 renal
[19] = test system: ACHN renal
[20] = test system: HCT-15 colon
[21] = test system: OVCAR-3 ovarian
[22] = test system: EKVX NSCLC
[23] = test system: MOLT-4 leukemia
[24] = test system: IGROV1 ovarian
[25] = test system: M14 melanoma
[26] = test system: NCI-H226 lung
[27] = test system: A498 renal
[28] = test system: NCI/ADR-RES ovarian
[29] = test system: SNB-75 CNS
[30] = test system: SK-MEL-5 melanoma
[31] = test system: BT-549 breast
[32] = test system: SK-OV-3 ovarian
[33] = test system: U251 CNS
[34] = test system: SNB-19 CNS
[35] = test system: MDA-MB-231 breast
[36] = test system: SF-295 CNS
[37] = test system: KM12 colon
[38] = test system: MALME-3M melanoma
[39] = test system: CCRF-CEM leukemia
[40] = test system: NCI-H460 lung
[41] = test system: SW-620 colon
[42] = test system: PC-3 prostate
[43] = test system: MDA-MB-435
[44] = test system: MCF7 breast
[45] = test system: COLO 205 colon
[46] = test system: HOP-92 NSCLC
[47] = test system: DU-145 prostate
[48] = test system: HT29 colon
[49] = test system: NCI-H23 lung
[50] = test system: HCC-2998 colon
[51] = test system: UACC-62 melanoma
[52] = test system: UACC-257 melanoma
[53] = test system: RXF 393 renal
[54] = test system: SK-MEL-2 melanoma
[55] = test system: UO-31 renal

In the case of `Cc1ccc(NCCN2CCCCC2)c2c(=O)c3ccccc3sc12`, the GI50 [1] was 1.78 µM, the TGI [1] was 3.68 µM and the GI50 [2] was 2.43 µM. The TGI [2] was 4.16 µM, the GI50 [3] was 4.35 µM and the TGI [3] was 17.6 µM. The GI50 [4] was 2.02 µM, the TGI [4] was 6 µM and the GI50 [5] was 1.66 µM. For the same compound, the TGI [5] was 3.6 µM, the GI50 [6] was 5.33 µM and the TGI [6] was 18.7 µM. It also gave a GI50 [7] of 1.55 µM, a TGI [7] of 3.07 µM and a GI50 [8] of 1.68 µM. For the same compound, the TGI [8] was 3.17 µM, the GI50 [9] was 0.278 µM and the TGI [9] was 2.43 µM. The GI50 [10] was 1.63 µM, the TGI [10] was 3.61 µM and the GI50 [11] was 1.42 µM. It also gave a TGI [11] of 2.97 µM, a GI50 [12] of 1.97 µM and a TGI [12] of 5.98 µM. For the same compound, the GI50 [13] was 1.49 µM, the TGI [13] was 3.42 µM and the GI50 [14] was 5.57 µM. The TGI [14] was 18.1 µM, the GI50 [15] was 2.03 µM and the TGI [15] was 5.17 µM. The GI50 [16] was 1.64 µM, the TGI [16] was 3.52 µM and the GI50 [17] was 1.97 µM. It also gave a TGI [17] of 3.64 µM, a GI50 [18] of 2 µM and a TGI [18] of 5.82 µM. The GI50 [19] was 2.68 µM, the TGI [19] was 7.47 µM and the GI50 [20] was 3.17 µM. It also gave a TGI [20] of 10.8 µM, a GI50 [21] of 4.75 µM and a TGI [21] of 17.6 µM. The GI50 [22] was 2.77 µM, the TGI [22] was 13.1 µM and the GI50 [23] was 1.99 µM. It also gave a TGI [23] of 4.91 µM, a GI50 [24] of 1.48 µM and a TGI [24] of 4.3 µM. For the same compound, the GI50 [25] was 1.61 µM, the TGI [25] was 2.97 µM and the GI50 [26] was 2.24 µM. For the same compound, the TGI [26] was 4.96 µM, the GI50 [27] was 1.91 µM and the TGI [27] was 3.64 µM. It also gave a GI50 [28] of 2.45 µM, a TGI [28] of 6.78 µM and a GI50 [29] of 2.61 µM. The TGI [29] was 8.09 µM, the GI50 [30] was 1.62 µM and the TGI [30] was 3 µM. The GI50 [31] was 2.43 µM, the TGI [31] was 9.59 µM and the GI50 [32] was 2.04 µM. It also gave a TGI [32] of 6.03 µM, a GI50 [33] of 2.61 µM and a TGI [33] of 7.9 µM. It also gave a GI50 [34] of 2.8 µM, a TGI [34] of 13.1 µM and a GI50 [35] of 2.12 µM. For the same compound, the TGI [35] was 4.77 µM, the GI50 [36] was 1.63 µM and the TGI [36] was 3.73 µM. It also gave a GI50 [37] of 3.81 µM, a TGI [37] of 14.4 µM and a GI50 [38] of 1.19 µM. It also gave a TGI [38] of 2.55 µM, a GI50 [39] of 2.38 µM and a TGI [39] of 6.92 µM. For the same compound, the GI50 [40] was 1.89 µM, the TGI [40] was 3.88 µM and the GI50 [41] was 1.96 µM. The TGI [41] was 4.01 µM, the GI50 [42] was 2.14 µM and the TGI [42] was 7.49 µM. It also gave a GI50 [43] of 1.78 µM, a TGI [43] of 3.73 µM and a GI50 [44] of 1.56 µM. The TGI [44] was 3.55 µM, the GI50 [45] was 1.45 µM and the TGI [45] was 2.85 µM. For the same compound, the GI50 [46] was 1.88 µM, the TGI [46] was 7.56 µM and the GI50 [47] was 3.76 µM. It also gave a TGI [47] of 14.4 µM, a GI50 [48] of 1.97 µM and a TGI [48] of 4.72 µM. For the same compound, the GI50 [49] was 2.25 µM, the TGI [49] was 5.77 µM and the GI50 [50] was 2.16 µM. For the same compound, the TGI [50] was 3.67 µM, the GI50 [51] was 1.92 µM and the TGI [51] was 3.77 µM.
For `CCN(CC)CCNC(=O)c1cn2ncnc(Oc3ccc(NC(=O)Nc4ccc(Cl)c(C(F)(F)F)c4)cc3)c2c1C`, the GI50 [1] was 1.36 µM, the TGI [1] was 2.82 µM and the GI50 [52] was 1.63 µM. The TGI [52] was 3.42 µM, the GI50 [2] was 1.48 µM and the TGI [2] was 2.8 µM. The GI50 [3] was 1.6 µM, the TGI [3] was 3.14 µM and the GI50 [4] was 1.8 µM. It also gave a TGI [4] of 4.42 µM, a GI50 [6] of 1.59 µM and a TGI [6] of 3.14 µM. For the same compound, the GI50 [7] was 1.76 µM, the TGI [7] was 3.56 µM and the GI50 [9] was 1.67 µM. It also gave a TGI [9] of 3.07 µM, a GI50 [12] of 1.1 µM and a TGI [12] of 2.32 µM. It also gave a GI50 [14] of 1.79 µM, a TGI [14] of 3.42 µM and a GI50 [15] of 1.49 µM. The TGI [15] was 3.92 µM, the GI50 [16] was 0.383 µM and the TGI [16] was 1.65 µM. The GI50 [17] was 1.99 µM, the TGI [17] was 3.48 µM and the GI50 [18] was 2.11 µM. It also gave a TGI [18] of 3.92 µM, a GI50 [19] of 1.73 µM and a TGI [19] of 3.1 µM. The GI50 [20] was 1.62 µM, the TGI [20] was 3.1 µM and the GI50 [21] was 1.93 µM. For the same compound, the TGI [21] was 3.51 µM, the GI50 [22] was 1.69 µM and the TGI [22] was 3.12 µM. It also gave a GI50 [23] of 0.738 µM, a TGI [23] of 2.4 µM and a GI50 [24] of 1.69 µM. For the same compound, the TGI [24] was 3.24 µM, the GI50 [26] was 1.76 µM and the TGI [26] was 3.89 µM. For the same compound, the GI50 [27] was 1.39 µM, the TGI [27] was 2.74 µM and the GI50 [28] was 1.98 µM. The TGI [28] was 3.82 µM, the GI50 [29] was 0.0645 µM and the TGI [29] was 1.52 µM. It also gave a GI50 [53] of 1.49 µM, a TGI [53] of 3.02 µM and a GI50 [30] of 1.76 µM. The TGI [30] was 3.22 µM, the GI50 [31] was 1.61 µM and the TGI [31] was 3.09 µM. The GI50 [32] was 1.85 µM, the TGI [32] was 3.46 µM and the GI50 [54] was 1.97 µM. For the same compound, the TGI [54] was 4.15 µM, the GI50 [34] was 1.86 µM and the TGI [34] was 3.27 µM. The GI50 [35] was 1.87 µM, the TGI [35] was 3.52 µM and the GI50 [36] was 1.8 µM. For the same compound, the TGI [36] was 3.33 µM, the GI50 [37] was 1.69 µM and the TGI [37] was 3.25 µM. For the same compound, the GI50 [38] was 1.29 µM, the TGI [38] was 2.84 µM and the GI50 [40] was 1.72 µM. The TGI [40] was 3.32 µM, the GI50 [41] was 2.23 µM and the TGI [41] was 3.96 µM. The GI50 [42] was 1.31 µM, the TGI [42] was 2.8 µM and the GI50 [43] was 1.63 µM. For the same compound, the TGI [43] was 3 µM, the GI50 [55] was 1.72 µM and the TGI [55] was 3.15 µM. The GI50 [44] was 1.22 µM, the TGI [44] was 2.77 µM and the GI50 [45] was 1.78 µM. It also gave a TGI [45] of 3.56 µM, a GI50 [46] of 1.19 µM and a TGI [46] of 2.69 µM. The GI50 [47] was 1.69 µM, the TGI [47] was 3.1 µM and the GI50 [49] was 1.8 µM. It also gave a TGI [49] of 3.49 µM, a GI50 [50] of 2.24 µM and a TGI [50] of 3.92 µM. It also gave a GI50 [51] of 1.81 µM and a TGI [51] of 3.43 µM.
